One experiment has as its system gp120. The conditions noted are these: ns = not significantly different from control; >100 = ED50 not determined.
In experiment [1] the test system is chemokine receptors on the surface of Jurkat cells. As to the kind of experiment: Binding to chemokine receptors on Jurkat cells. Also on record: species or system human. As for the experimental part:
For Scatchard analysis, the absorbance readings at 450 nm were calibrated, by reference to a standard curve in which known amounts of labeled peptide were coupled to derivatized sepharose beads (activated thiol-sepharose 4B; Sigma T8512) via the cysteine residue in each peptide. Briefly, known amounts (1 fmol to 1 pmol) of biotin-labeled peptide were incubated with 1 mg of activated thiol-sepharose beads in 100 μl of PBS at 37° C. for 1 hour. Free activated thiols were then blocked by addition of cysteine to a final concentration of 10 mM. The peptide-conjugated beads were then washed 5 times in PBS and treated exactly as for the cells described above. The absorbance at 450 nm obtained when a known amount of peptide was coupled to the beads was used to construct a standard curve which was used to convert the absorbance readings obtained with cells into number of molecules of labeled peptide which had bound.

For experiment [2], the target named is recombinant human chemokine receptors (CCR1-5, CXCR4, CXCR1, CXCR2). As to the kind of experiment: Binding of biotin-labeled peptides to chemokine receptor expressing HOS/CHO lines. The conditions noted are these: no evidence for any binding; read-out: affinity of any binding to recombinant human chemokine receptors. The protocol: Iodinated-RANTES and iodinated-MCP-1 (Amersham) were reconstituted in MilliQ water to a concentration of 50 nM (0.1 μCi/μl) with a specific activity of 2000 Ci/mmole. Iodinated-streptavidin was obtained (Amersham) at a stock concentration of 47 nM (0.1 μCi/μl) and a specific activity of 38 μCi/μg (55,000 Da). Cold RANTES and MCP-1 were purchased from R&D Systems (Minneapolis, Minn.), reconstituted in sterile PBS+1 mg/ml fatty acid free BSA (FAF-BSA) (Sigma A-6003) at 10 μg/ml ([…]). Cold streptavidin (Calbiochem) was reconstituted in sterile MilliQ to a concentration of 4 mg/ml (90 μM).
FAF-BSA was used throughout. All experiments were performed in binding medium (50 mM HEPES, 1 mM CaCl2, 1 mM MgCl2, 0.5% FAF-BSA pH 7.5) as described by Ruffing et al. (Cell. Immunol., 189, 160 (1998)) unless stated otherwise. Reactions were all performed at 4° C. and all buffers were pre-cooled to 4° C. unless stated otherwise.
The biotinylated peptide was synthesized as an N-terminal biotin conjugate of the sequence n′-[…]-c′ (SEQ ID NO:152; Affiniti Research) and confirmed as >90% pure by HPLC. […]
The binding of labeled peptide 2 and labeled peptide 3 to the parental HOS, parental CHO and 8 chemokine receptor expressing lines was compared. […] The amount of streptavidin molecules added was calculated in each case to be approximately 50-fold in excess over the number of chemokine receptor sites. […]

The target of experiment [3] is T1, Recombinant human latent TGF-β1 (Homo sapiens, UniProt P01137).
T1 construct: purchased R&D Systems; host or cells: CHO cells
As to the kind of experiment: Latent TGF-β1 activation ELISA (R2X capture). In kind it is biochemical. Also on record: key: −: A minus indicates no detectable activity in the assay; +: The number of pluses is a qualitative indicating of the activity of each peptide in each assay; ++: The number of pluses is a qualitative indicating of the activity of each peptide in each assay; +++: The number of pluses is a qualitative indicating of the activity of each peptide in each assay; ++++: The number of pluses is a qualitative indicating of the activity of each peptide in each assay; +++++: The number of pluses is a qualitative indicating of the activity of each peptide in each assay. The settings on record: test peptide at 100 nM, 37° C., 90 minutes. As for the experimental part: To test whether a KXK tripeptide activates TGF-beta, a direct ELISA-type assay can be used. Recombinant human latent TGF-β1 produced in CHO cells (R&D Systems) was incubated with the test activator. For example, 200 ng of latent TGF-β1 (at 20 μg/ml) was incubated with test peptide at 100 nM final concentration at 37° C. for 90 minutes. Following incubation, the TGF-β is incubated with the recombinant extracellular domain of the Type II TGF-β receptor (R2X) which binds only the active and not the latent forms of TGF-β1 (Clin. Chim. Acta, 235, 11 (1995)). For example, 1 μg of purified R2X is coated onto a Maxisorp ELISA plate well in 50 μl of 100 mM sodium carbonate for 2 hours at 4° C., and non-specific protein binding then blocked incubation with 5% sucrose 5% Tween-20 in Tris-buffered saline for 1 hour at room temperature.
The TGF-β sample is then incubated with the coated and blocked wells for 2 hours at room temperature with shaking. Wells are washed 3 times quickly with Tris-buffered saline containing 0.05% Tween-20 between each incubation. If any of the latent TGF-β1 has been activated by the incubation with test peptide, it is captured by the R2X, while remaining latent TGF-β1 is washed away. Captured active TGF-β1 is then detected by incubation with a suitable detection agent, such as a peroxidase conjugated polyclonal anti-TGF-beta antibody. For example, the wells are incubated with 200 μl of BDA19 chicken anti-TGF-β1 antibody coupled to horseradish peroxidase for 90 minutes at room temperature with shaking. Any bound peroxidase is then detected using a suitable chromogenic substrate (e.g., K-BLUE TMB substrate solution). The amount of active TGF-β generated is estimated by interpolation of a standard curve constructed using known amounts of active TGF-β1 (R&D Systems).

pKd: −log10 of the molar value. No end group written: not given here.

T1 sequence (P01137 30-278 limits assumed): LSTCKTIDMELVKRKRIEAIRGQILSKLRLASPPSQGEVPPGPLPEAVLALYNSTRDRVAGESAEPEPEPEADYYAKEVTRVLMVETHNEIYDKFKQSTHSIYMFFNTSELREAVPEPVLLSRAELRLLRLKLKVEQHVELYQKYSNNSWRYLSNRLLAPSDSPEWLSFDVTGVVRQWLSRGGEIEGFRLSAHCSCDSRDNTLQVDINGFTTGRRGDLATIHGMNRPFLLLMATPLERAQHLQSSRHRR

On to “SYRRITSSKCPKEAV [peptide 2(1-15)[MCP-1]]”, for which the “gp120 ED-50” value with gp120 was 0.4 µM. In experiment [1], the “B, binding sites on Jurkat cells” value was 55,000 sites/cell and the “Ka, chemokine receptors on the surface of Jurkat cells” value stood at 250 nM. Consider EICADPKQKWVQ [peptide 3(1-12)[MCP-1]], for which the pKd in experiment [2] was less than 5.00. Regarding `NCCCC[C@H](NC(=O)[C@H](CCC(N)=O)NC(=O)[C@@H](N)CCCCN)C(=O)O` [KQK], the “TGF-beta Activator” value in experiment [3] is on record as “−”.

Source of the values: US7989466B2, “Methods to inhibit or augment an inflammatory response” (Cambridge Enterprise Limited, priority 1999, dated 2011).
